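Cells were grown in 96-well plates and exposed to each compound for 48 hours at five concentrations; endpoints were interpolated linearly between bracketing concentrations, or set to the highest concentration if not reached. At the TGI there is no net growth.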
What was measured:
Assay in all cases: NCI anticancer screen, dose series, 48 h
[1] = tested on: OVCAR-3 ovarian
[2] = tested on: RXF 393 renal
[3] = tested on: MCF7 breast
[4] = tested on: SNB-75 CNS
[5] = tested on: NCI-H460 lung
[6] = tested on: DU-145 prostate
[7] = tested on: M14 melanoma
[8] = tested on: COLO 205 colon
[9] = tested on: U251 CNS
[10] = tested on: A498 renal
[11] = tested on: ACHN renal
[12] = tested on: T-47D breast
[13] = tested on: CCRF-CEM leukemia
[14] = tested on: SN12C renal
[15] = tested on: SK-OV-3 ovarian
[16] = tested on: SW-620 colon
[17] = tested on: SK-MEL-2 melanoma
[18] = tested on: BT-549 breast
[19] = tested on: MDA-MB-435
[20] = tested on: A549 NSCLC
[21] = tested on: OVCAR-4 ovarian
[22] = tested on: MALME-3M melanoma
[23] = tested on: NCI-H23 lung
[24] = tested on: OVCAR-8 ovarian
[25] = tested on: HOP-62 NSCLC
[26] = tested on: 786-0 renal
[27] = tested on: UACC-257 melanoma
[28] = tested on: IGROV1 ovarian
[29] = tested on: HCT-15 colon
[30] = tested on: HCC-2998 colon
[31] = tested on: RPMI-8226 leukemia
[32] = tested on: SNB-19 CNS
[33] = tested on: SK-MEL-5 melanoma
[34] = tested on: SF-295 CNS
[35] = tested on: MDA-N
[36] = tested on: SK-MEL-28 melanoma
[37] = tested on: HT29 colon
[38] = tested on: PC-3 prostate
[39] = tested on: OVCAR-5 ovarian
[40] = tested on: LOX IMVI melanoma
[41] = tested on: KM12 colon
[42] = tested on: TK-10 renal
[43] = tested on: EKVX NSCLC
[44] = tested on: SF-268 CNS
[45] = tested on: UACC-62 melanoma
[46] = tested on: MOLT-4 leukemia
[47] = tested on: HS 578T breast
[48] = tested on: CAKI-1 renal
[49] = tested on: HCT-116 colon
[50] = tested on: HOP-92 NSCLC
[51] = tested on: K-562 leukemia
[52] = tested on: MDA-MB-231 breast
[53] = tested on: NCI/ADR-RES ovarian
[54] = tested on: HL-60(TB) leukemia
[55] = tested on: UO-31 renal
[56] = tested on: NCI-H522 lung
[57] = tested on: SR leukemia
[58] = tested on: SF-539 CNS
[59] = tested on: NCI-H226 lung

`COc1ccc(OC)c(C2CCc3cnc4nc(N)nc(N)c4c3C2)c1` (configuration not stated) gave a TGI [1] greater than 100 µM, a TGI [2] of 83.3 µM and a TGI [3] greater than 100 µM. The TGI [4] was 50.1 µM, the TGI [5] was greater than 100 µM and the TGI [6] was greater than 100 µM. For the same compound, the TGI [7] was greater than 100 µM, the TGI [8] was greater than 100 µM and the TGI [9] was greater than 100 µM. For the same compound, the TGI [10] was greater than 100 µM, the TGI [11] was greater than 100 µM and the TGI [12] was greater than 100 µM. The TGI [13] was greater than 100 µM, the TGI [14] was greater than 100 µM and the TGI [15] was greater than 100 µM. It also gave a TGI [16] greater than 100 µM, a TGI [17] greater than 100 µM and a TGI [18] greater than 100 µM. For the same compound, the TGI [19] was greater than 100 µM, the TGI [20] was greater than 100 µM and the TGI [21] was greater than 100 µM. The TGI [22] was greater than 100 µM, the TGI [23] was greater than 100 µM and the TGI [24] was greater than 100 µM. It also gave a TGI [25] greater than 100 µM, a TGI [26] greater than 100 µM and a TGI [27] greater than 100 µM. It also gave a TGI [28] greater than 100 µM, a TGI [29] greater than 100 µM and a TGI [30] greater than 100 µM. For the same compound, the TGI [31] was greater than 100 µM, the TGI [32] was greater than 100 µM and the TGI [33] was greater than 100 µM. For the same compound, the TGI [34] was greater than 100 µM, the TGI [35] was greater than 100 µM and the TGI [36] was greater than 100 µM. For the same compound, the TGI [37] was greater than 100 µM, the TGI [38] was greater than 100 µM and the TGI [39] was greater than 100 µM. It also gave a TGI [40] greater than 100 µM, a TGI [41] greater than 100 µM and a TGI [42] greater than 100 µM. The TGI [43] was greater than 100 µM, the TGI [44] was greater than 100 µM and the TGI [45] was greater than 100 µM. It also gave a TGI [46] greater than 100 µM, a TGI [47] greater than 100 µM and a TGI [48] greater than 100 µM. It also gave a TGI [49] greater than 100 µM, a TGI [50] greater than 100 µM and a TGI [51] greater than 100 µM. The TGI [52] was greater than 100 µM, the TGI [53] was greater than 100 µM and the TGI [54] was greater than 100 µM. For the same compound, the TGI [55] was 85.3 µM, the TGI [56] was greater than 100 µM and the TGI [57] was greater than 100 µM.
With `Cc1cc(S(=O)(=O)Nc2nc(N)n(C)n2)c(S)cc1Cl` the TGI [1] was greater than 10 µM, the TGI [2] was greater than 10 µM and the TGI [3] was greater than 10 µM. The TGI [4] was greater than 10 µM, the TGI [5] was greater than 10 µM and the TGI [6] was greater than 10 µM. It also gave a TGI [7] greater than 10 µM, a TGI [8] greater than 10 µM and a TGI [9] greater than 10 µM. For the same compound, the TGI [10] was greater than 10 µM, the TGI [11] was greater than 10 µM and the TGI [12] was greater than 10 µM. It also gave a TGI [13] greater than 10 µM, a TGI [14] greater than 10 µM and a TGI [15] greater than 10 µM. It also gave a TGI [16] greater than 10 µM, a TGI [17] greater than 10 µM and a TGI [18] greater than 10 µM. The TGI [19] was greater than 10 µM, the TGI [20] was greater than 10 µM and the TGI [21] was greater than 10 µM. It also gave a TGI [22] greater than 10 µM, a TGI [23] greater than 10 µM and a TGI [24] greater than 10 µM. The TGI [25] was greater than 10 µM, the TGI [26] was greater than 10 µM and the TGI [27] was greater than 10 µM. For the same compound, the TGI [28] was greater than 10 µM, the TGI [29] was greater than 10 µM and the TGI [30] was greater than 10 µM. The TGI [31] was greater than 10 µM, the TGI [32] was greater than 10 µM and the TGI [33] was greater than 10 µM. For the same compound, the TGI [34] was greater than 10 µM, the TGI [58] was greater than 10 µM and the TGI [35] was greater than 10 µM. The TGI [36] was greater than 10 µM, the TGI [37] was greater than 10 µM and the TGI [38] was greater than 10 µM. The TGI [39] was greater than 10 µM, the TGI [40] was greater than 10 µM and the TGI [41] was greater than 10 µM. For the same compound, the TGI [59] was greater than 10 µM, the TGI [42] was greater than 10 µM and the TGI [43] was greater than 10 µM. For the same compound, the TGI [44] was greater than 10 µM, the TGI [45] was greater than 10 µM and the TGI [46] was greater than 10 µM. The TGI [47] was greater than 10 µM, the TGI [48] was greater than 10 µM and the TGI [49] was greater than 10 µM. It also gave a TGI [51] greater than 10 µM, a TGI [52] greater than 10 µM and a TGI [53] greater than 10 µM. The TGI [54] was greater than 10 µM, the TGI [55] was greater than 10 µM and the TGI [56] was greater than 10 µM.
Work on `COC(=O)C1=NN2c3ccccc3CN([C@@H](C)c3ccccc3)C(=O)[C@@H]2C1` yielded a TGI [1] of 97.9 µM, a TGI [2] greater than 100 µM and a TGI [3] greater than 100 µM. It also gave a TGI [5] greater than 100 µM, a TGI [6] greater than 100 µM and a TGI [7] of 57.5 µM. For the same compound, the TGI [8] was greater than 100 µM, the TGI [9] was greater than 100 µM and the TGI [10] was greater than 100 µM. It also gave a TGI [11] greater than 100 µM, a TGI [12] of 40.1 µM and a TGI [13] greater than 100 µM. For the same compound, the TGI [14] was greater than 100 µM, the TGI [15] was greater than 100 µM and the TGI [16] was greater than 100 µM. For the same compound, the TGI [17] was 74.1 µM, the TGI [18] was 64.9 µM and the TGI [19] was 34 µM. The TGI [20] was greater than 100 µM, the TGI [21] was 26.1 µM and the TGI [22] was 62.8 µM. It also gave a TGI [23] greater than 100 µM, a TGI [24] greater than 100 µM and a TGI [25] greater than 100 µM. For the same compound, the TGI [26] was greater than 100 µM, the TGI [27] was greater than 100 µM and the TGI [28] was greater than 100 µM. For the same compound, the TGI [29] was greater than 100 µM, the TGI [30] was greater than 100 µM and the TGI [31] was 62.7 µM. For the same compound, the TGI [32] was greater than 100 µM, the TGI [33] was 32.7 µM and the TGI [34] was greater than 100 µM. For the same compound, the TGI [58] was greater than 100 µM, the TGI [35] was greater than 100 µM and the TGI [36] was greater than 100 µM. For the same compound, the TGI [37] was greater than 100 µM, the TGI [38] was greater than 100 µM and the TGI [39] was greater than 100 µM. It also gave a TGI [40] of 77.1 µM, a TGI [41] of 51.3 µM and a TGI [59] greater than 100 µM. The TGI [42] was greater than 100 µM, the TGI [43] was greater than 100 µM and the TGI [44] was greater than 100 µM. For the same compound, the TGI [45] was 66.8 µM, the TGI [46] was 46.5 µM and the TGI [47] was 85.8 µM. It also gave a TGI [48] of 77.7 µM, a TGI [49] greater than 100 µM and a TGI [50] greater than 100 µM. For the same compound, the TGI [51] was 76.6 µM, the TGI [52] was greater than 100 µM and the TGI [53] was 56.1 µM. For the same compound, the TGI [54] was 48.6 µM, the TGI [55] was 60.7 µM and the TGI [56] was 53.1 µM. It also gave a TGI [57] of 82.9 µM.
